Experimental data from patent publication US20240083886A1, “HETEROCYCLIC GLP-1 AGONISTS” (Gasherbrum Bio, Inc., priority 2020, published 2024).

biological target: GLP-1 Receptor (Homo sapiens, UniProt P43220); assay: GLP-1R agonist cAMP stimulation assay; type: cell-based; conditions: not given
Procedure, shortened: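 HEK293/CRE-Luc cells stably expressing GLP-1R, 1000 cells/well in DPBS with 0.5 mM IBMX and 0.1% BSA, exposed to ½-log compound dilutions 30 min at 37 °C. cAMP measured by HTRF (665/615 nm) after 1 h at room temperature. % activity normalised between vehicle and MAX controls.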

Sequence of GLP-1 Receptor (P43220 24-463, species assumed): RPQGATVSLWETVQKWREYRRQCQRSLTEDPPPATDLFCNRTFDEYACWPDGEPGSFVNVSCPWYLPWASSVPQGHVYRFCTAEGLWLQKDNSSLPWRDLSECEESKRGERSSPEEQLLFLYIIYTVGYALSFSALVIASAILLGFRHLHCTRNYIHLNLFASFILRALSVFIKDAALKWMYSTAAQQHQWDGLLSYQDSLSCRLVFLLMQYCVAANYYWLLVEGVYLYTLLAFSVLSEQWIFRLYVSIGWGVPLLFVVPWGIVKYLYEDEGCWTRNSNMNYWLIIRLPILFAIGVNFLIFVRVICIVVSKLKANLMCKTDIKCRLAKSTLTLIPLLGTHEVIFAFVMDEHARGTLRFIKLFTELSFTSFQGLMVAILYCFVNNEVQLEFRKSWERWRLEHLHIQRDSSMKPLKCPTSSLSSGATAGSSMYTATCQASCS

| SMILES | EC50 [nM] |
| --- | --- |
| FC(F)(F)c1nnc(-c2cnc3c(c2)nc(CN2CCC(Oc4cccc(Cc5ccc(Cl)cc5)n4)CC2)n3C[C@@H]2CCO2)[nH]1 [Compound 143a, 2-[(4-chlorophenyl)methyl]-6-({1-[(3-{[(2S)-oxetan-2-yl]methyl}-6-[5-(trifluoromethyl)-4H-1,2,4-triazol-3-yl]-3H-imidazo[4,5-b]pyridin-2-yl)methyl]piperidin-4-yl}oxy)pyridine] | 0.22 |
| FC(F)(F)c1nnc(-c2cnc3c(c2)nc(CN2CCC(Oc4ccnc(Cc5ccc(Cl)cc5)n4)CC2)n3C[C@@H]2CCO2)[nH]1 [Compound 120a, 2-[(4-chlorophenyl)methyl]-4-({1-[(3-{[(2S)-oxetan-2-yl]methyl}-6-[5-(trifluoromethyl)-4H-1,2,4-triazol-3-yl]-3H-imidazo[4,5-b]pyridin-2-yl)methyl]piperidin-4-yl}oxy)pyrimidine] | 0.17 |

Next, values leading:

| EC50 [nM] | SMILES |
| --- | --- |
| 0.036 | FC(F)(F)c1nnc(-c2cc3nc(CN4CCC(Oc5ccnc(Cc6ccc(Cl)cc6)n5)CC4)n(C[C@@H]4CCO4)c3cn2)[nH]1 [Compound 150a, 2-[(4-chlorophenyl)methyl]-4-({1-[(3-{[(2S)-oxetan-2-yl]methyl}-6-[5-(trifluoromethyl)-4H-1,2,4-triazol-3-yl]-3H-imidazo[4,5-c]pyridin-2-yl)methyl]piperidin-4-yl}oxy)pyrimidine] |
| 3.3 | COCc1nnc(-c2cc3nc(CN4CCC(Oc5cccc(Cc6ccc(Cl)cc6F)n5)CC4)n(C[C@@H]4CCO4)c3cn2)[nH]1 [Compound 183a, 2-[(4-chloro-2-fluorophenyl)methyl]-6-{[1-({6-[5-(methoxymethyl)-4H-1,2,4-triazol-3-yl]-3-{[(2S)-oxetan-2-yl]methyl}-3H-imidazo[4,5-c]pyridin-2-yl}methyl)piperidin-4-yl]oxy}pyridine] |

same assay, conditions: HEK293/GLP1R/CRE-LUC cells, cAMP dynamic 2 Kit (Cisbio), 30 min incubation at 37° C.; read-out: EC50

| SMILES | EC50 [nM] |
| --- | --- |
| Clc1ccc(Cc2nccc(OC3CCN(Cc4nc5cc(-c6nnn[nH]6)ccc5n4C[C@@H]4CCO4)CC3)n2)cc1 [Compound 107a, 2-{[4-({2-[(4-chlorophenyl)methyl]pyrimidin-4-yl}oxy)piperidin-1-yl]methyl}-1-{[(2S)-oxetan-2-yl]methyl}-5-(1H-1,2,3,4-tetrazol-5-yl)-1H-1,3-benzodiazole] | 0.2 |
| Fc1cc2c(cc1-c1nnc(C(F)(F)F)[nH]1)nc(CN1CCC(Oc3ccnc(Cc4ccc(Cl)cc4)n3)CC1)n2C[C@@H]1CCO1 [Compound 122a, 2-{[4-({2-[(4-chlorophenyl)methyl]pyrimidin-4-yl}oxy)piperidin-1-yl]methyl}-6-fluoro-1-{[(2S)-oxetan-2-yl]methyl}-5-[5-(trifluoromethyl)-4H-1,2,4-triazol-3-yl]-1H-1,3-benzodiazole] | 0.54 |
| Cc1ncccc1C(=O)Nc1ccc2c(c1)nc(CN1CCC(Oc3ccnc(Cc4ccc(Cl)cc4)n3)CC1)n2C[C@@H]1CCO1 [Compound 103a, N-(2-{[4-({2-[(4-chlorophenyl)methyl]pyrimidin-4-yl}oxy)piperidin-1-yl]methyl}-1-{[(2S)-oxetan-2-yl]methyl}-1H-1,3-benzodiazol-5-yl)-2-methylpyridine-3-carboxamide] | 0.093 |
| Fc1cc(Cl)ccc1Cc1cccc(OC2CCN(Cc3nc4cc(-c5nnn[nH]5)ccc4n3C[C@@H]3CCO3)CC2)n1 [Compound 110a, 2-{[4-({6-[(4-chloro-2-fluorophenyl)methyl]pyridin-2-yl}oxy)piperidin-1-yl]methyl}-1-{[(2S)-oxetan-2-yl]methyl}-5-(1H-1,2,3,4-tetrazol-5-yl)-1H-1,3-benzodiazole] | 0.38 |
| Fc1cc(Cl)ccc1Cc1cccc(OC2CCN(Cc3nc4cc(-c5nnc(C(F)(F)F)[nH]5)cnc4n3C[C@@H]3CCO3)CC2)n1 [Compound 141a, 2-[(4-chloro-2-fluorophenyl)methyl]-6-({1-[(3-{[(2S)-oxetan-2-yl]methyl}-6-[5-(trifluoromethyl)-4H-1,2,4-triazol-3-yl]-3H-imidazo[4,5-b]pyridin-2-yl)methyl]piperidin-4-yl}oxy)pyridine] | 0.13 |
| COc1ccc(C(=O)Nc2ccc3c(c2)nc(CN2CCC(Oc4ccnc(Cc5ccc(Cl)cc5F)n4)CC2)n3C[C@@H]2CCO2)cn1 [Compound 112a, N-(2-{[4-({2-[(4-chloro-2-fluorophenyl)methyl]pyrimidin-4-yl}oxy)piperidin-1-yl]methyl}-1-{[(2S)-oxetan-2-yl]methyl}-1H-1,3-benzodiazol-5-yl)-6-methoxypyridine-3-carboxamide] | 0.37 |
| O=C(O)c1ccc2c(c1)nc(CN1CCC(Oc3ccnc(Cc4ccc(Cl)cc4)n3)CC1)n2C[C@@H]1CCO1 [Compound 134a, 2-{[4-({2-[(4-chlorophenyl)methyl]pyrimidin-4-yl}oxy)piperidin-1-yl]methyl}-1-{[(2S)-oxetan-2-yl]methyl}-1H-1,3-benzodiazole-5-carboxylic acid] | 0.053 |
| O=c1[nH]c(-c2ccc3c(c2)nc(CN2CCC(Oc4ccnc(Cc5ccc(Cl)cc5)n4)CC2)n3C[C@@H]2CCO2)no1 [Compound 108a, 3-(2-{[4-({2-[(4-chlorophenyl)methyl]pyrimidin-4-yl}oxy)piperidin-1-yl]methyl}-1-{[(2S)-oxetan-2-yl]methyl}-1H-1,3-benzodiazol-5-yl)-4,5-dihydro-1,2,4-oxadiazol-5-one] | 0.38 |

More lines, now with the values ahead:

| EC50 [nM] | SMILES |
| --- | --- |
| 0.24 | N#Cc1ccc(Cc2cccc(OC3CCN(Cc4nc5cc(-c6nnc(C(F)(F)F)[nH]6)ncc5n4C[C@@H]4CCO4)CC3)n2)c(F)c1 [Compound 190a, 3-fluoro-4-{[6-({1-[(3-{[(2S)-oxetan-2-yl]methyl}-6-[5-(trifluoromethyl)-4H-1,2,4-triazol-3-yl]-3H-imidazo[4,5-c]pyridin-2-yl)methyl]piperidin-4-yl}oxy)pyridin-2-yl]methyl}benzonitrile] |
| 1.1 | N#CC1(Cn2c(CN3CCC(Oc4ccnc(Cc5ccc(Cl)cc5)n4)CC3)nc3cc(-c4nnc(C(F)(F)F)[nH]4)ccc32)CC1 [Compound 157, 1-[(2-{[4-({2-[(4-chlorophenyl)methyl]pyrimidin-4-yl}oxy)piperidin-1-yl]methyl}-5-[5-(trifluoromethyl)-4H-1,2,4-triazol-3-yl]-1H-1,3-benzodiazol-1-yl)methyl]cyclopropane-1-carbonitrile] |
| 1.4 | FC(F)(F)c1nnc(-c2ccc3c(c2)nc(CN2CCC(Oc4ccnc(Cc5ccc(Cl)cc5)n4)CC2)n3C[C@H]2CCOC2)[nH]1 [Compound 148a, 2-{[4-({2-[(4-chlorophenyl)methyl]pyrimidin-4-yl}oxy)piperidin-1-yl]methyl}-1-{[(3R)-oxolan-3-yl]methyl}-5-[5-(trifluoromethyl)-4H-1,2,4-triazol-3-yl]-1H-1,3-benzodiazole] |
| 0.37 | Fc1cc(Cc2cccc(OC3CCN(Cc4nc5cc(-c6nnc(C(F)(F)F)[nH]6)ncc5n4C[C@@H]4CCO4)CC3)n2)ccc1Cl [Compound 185a, 2-[(4-chloro-3-fluorophenyl)methyl]-6-({1-[(3-{[(2S)-oxetan-2-yl]methyl}-6-[5-(trifluoromethyl)-4H-1,2,4-triazol-3-yl]-3H-imidazo[4,5-c]pyridin-2-yl)methyl]piperidin-4-yl}oxy)pyridine] |
